These results are taken from ChEMBL document CHEMBL1201862, “PubChem BioAssay data set” (2004).

Common to all, as to test: NCI anticancer screen, dose series, 48 h
Test [1] has as its system SK-MEL-28.
In test [2] the test system is HCT-15.
The subject of test [3] is U-251.
For test [4], the system named is PC-3.
Test [5] deals with MDA-MB-231.
Test [6] relates to NCI-H522.
In test [7] the test system is HCT-116.
The test system of test [8] is MDA-N.
Test [9] relates to EKVX.
Test [10] relates to UACC-62.
The test system of test [11] is TK-10.
The test system of test [12] is Malme-3M.
Test [13] concerns OVCAR-3.
Test [14] has as its system OVCAR-5.
Test [15] concerns ACHN.
Test [16] has as its system UACC-257.
Test [17] relates to SNB-19.
For test [18], the system named is UO-31.
In test [19] the test system is SNB-75.

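Method: 48-hour compound exposure of cells in 96-well plates, five concentrations, linear interpolation of endpoints. GI50: concentration for 50% inhibition of growth.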 Active and inactive are the calls of the source. Cut-off read from the data, not from the text of the source: active = GI50 up to about 1.1 µM and inactive = higher.

As to `CN(C)Cc1ccc(-c2cc3onc(-c4ccccc4)c3c(=O)n2C)cc1`, the GI50 in test [1] was 18.9 µM (inactive); in test [2] it was 20.5 µM; in [3] it was 22 µM (inactive); in test [4], 39.8 µM (inactive); in test [5] it was 28.5 µM (inactive); in test [6], 18.7 µM (inactive). The GI50 in [7] is 14.4 µM (inactive); in test [8], 17.6 µM (inactive); in test [9], > 100 µM (inactive); in [10] it was 25.9 µM (inactive); in [11], 24.1 µM (inactive); in test [12], 29 µM (inactive). Besides, the GI50 in test [13] is 37.4 µM (inactive); in test [14], 40.6 µM (inactive); in test [15], 67.5 µM (inactive); in test [16], 18.3 µM (inactive); in [17], 57.8 µM (inactive); in test [18] it was 11.6 µM (inactive).

As for `CN(C)S(=O)(=O)/N=C/c1cccc(/C=N/S(=O)(=O)N(C)C)c1`, the GI50 is > 100 µM (inactive) in [1]; > 100 µM in test [2]; > 100 µM (inactive) in [3]; > 100 µM (inactive) in test [4]; > 100 µM (inactive) in [5]; 22.9 µM (inactive) in test [19]. Moreover, the GI50 was 33.3 µM (inactive) in test [7]; 31 µM (inactive) in [8]; 64.9 µM (inactive) in test [9]; > 100 µM (inactive) in [10]; > 100 µM (inactive) in test [11]; > 100 µM (inactive) in test [13]. Also, the GI50 in [14], in test [15], in test [16], in test [17] and in [18] was > 100 µM (inactive) in each case.

For `O=C(NNC(=O)c1csc(NC(=S)NC2CCCCC2)n1)c1ccccc1`, the GI50 was 2.74 µM in [2]; 3.71 µM (inactive) in test [3]; 7.82 µM (inactive) in test [4]; 13.5 µM (inactive) in [5]; 83.9 µM (inactive) in test [19]; 11.7 µM (inactive) in [6]. The GI50 was 2.7 µM (inactive) in [7]; 13.9 µM (inactive) in test [8]; 1.84 µM (inactive) in test [9]; 10.2 µM (inactive) in [10]; 22 µM (inactive) in test [11]; 15.5 µM (inactive) in test [12]. Also, the GI50 is 4.33 µM (inactive) in test [13]; 11.9 µM (inactive) in test [14]; 11.4 µM (inactive) in test [15]; 7.96 µM (inactive) in test [16]; 13.7 µM (inactive) in [18].

Consider `O=c1cc(CSc2c(-c3ccccc3)c(=O)n(-c3ccccc3)c(=S)n2-c2ccccc2)[nH]c(=O)[nH]1`, for which the GI50 was > 100 µM (inactive) in test [1]; > 100 µM in test [2]; > 100 µM (inactive) in test [3]; > 100 µM (inactive) in [4]; > 100 µM (inactive) in test [5]; > 100 µM (inactive) in test [19]. Besides, the GI50 in test [7], in [8], in [9], in test [10], in [11] and in test [13] was > 100 µM (inactive) in each case. Also, the GI50 in test [14], in [15], in [16], in test [17] and in [18] was > 100 µM (inactive) each time.

With `COCO[C@@H]1C[C@H]2C(=O)Nc3ccccc3C(=O)N2C1`, the GI50 is > 100 µM (inactive) in test [1]; > 100 µM in test [2]; 45.7 µM (inactive) in test [3]; 43.8 µM (inactive) in test [4]; > 100 µM (inactive) in [5]; 45.3 µM (inactive) in test [19]. The GI50 in test [6] was 16.2 µM (inactive); in test [7], 85.3 µM (inactive); in [8] it was 39.2 µM (inactive); in test [9] it was > 100 µM (inactive); in test [10] it was > 100 µM (inactive); in test [11] it was 71.4 µM (inactive). The GI50 was 40.3 µM (inactive) in test [12]; 61.5 µM (inactive) in test [14]; 50.6 µM (inactive) in test [15]; > 100 µM (inactive) in test [16]; 77.4 µM (inactive) in test [17]; 27 µM (inactive) in [18].

On to `Nc1ccc(S2(c3ccc(N)cc3)C=C(c3ccccc3)C(c3ccccc3)=C2)cc1`, for which the GI50 in test [1] was > 31.1 µM (inactive); in [2] it was > 54.2 µM; in test [3], > 25 µM (inactive); in test [4], > 25.2 µM (inactive); in test [5], > 24.2 µM (inactive); in [19], > 100 µM (inactive). In addition, the GI50 was > 36 µM (inactive) in [7]; > 30.2 µM (inactive) in test [8]; > 100 µM (inactive) in test [9]; > 35.6 µM (inactive) in test [10]; > 27.9 µM (inactive) in [11]; > 100 µM (inactive) in test [12]. Besides, the GI50 was > 100 µM (inactive) in test [13]; > 65.6 µM (inactive) in test [14]; > 28.6 µM (inactive) in test [15]; > 54.5 µM (inactive) in [16]; > 45 µM (inactive) in [17]; > 40.6 µM (inactive) in [18].

As to `N#Cc1cc(-c2nc3ccc(F)cc3s2)ccc1N`, the GI50 in test [2] is 87.7 µM; in test [3], 63 µM (inactive); in [4] it was > 100 µM (inactive); in test [5], > 100 µM (inactive); in test [19] it was 14.7 µM (inactive); in test [6], > 100 µM (inactive). The GI50 in test [7] was 33.5 µM (inactive); in test [8] it was 22.1 µM (inactive); in test [9], 31.8 µM (inactive); in [10], > 100 µM (inactive); in [11], > 100 µM (inactive); in test [12], 35.3 µM (inactive). In addition, the GI50 in test [13], in test [14], in test [15], in [16], in test [17] and in test [18] was > 100 µM (inactive) each time.

As for `CCOC(=O)c1cc(=O)c2cccc3c2n1CCS3`, the GI50 is > 100 µM (inactive) in [1]; > 100 µM in test [2]; > 100 µM (inactive) in test [3]; > 100 µM (inactive) in test [4]; > 100 µM (inactive) in test [5]; > 100 µM (inactive) in test [19]. The GI50 in [6] was 91.4 µM (inactive); in [7], > 100 µM (inactive); in test [8] it was > 100 µM (inactive); in test [9], > 100 µM (inactive); in [10], > 100 µM (inactive); in test [11], > 100 µM (inactive). Besides, the GI50 was > 100 µM (inactive) in test [13]; > 100 µM (inactive) in test [14]; > 100 µM (inactive) in [15]; > 100 µM (inactive) in test [16]; > 100 µM (inactive) in test [17]; 77.8 µM (inactive) in test [18].

`COC1(O)C(=O)c2ccccc2OC1(OC)c1ccccc1` (stereo not given): the GI50 in test [1] is > 100 µM (inactive); in test [2], 31.8 µM; in test [3], > 100 µM (inactive); in test [4], > 100 µM (inactive); in test [5], > 100 µM (inactive); in test [19], > 100 µM (inactive). Moreover, the GI50 in [6], in test [7], in [8], in test [9], in [10] and in [11] was > 100 µM (inactive) in each case. In addition, the GI50 in [12], in test [13], in test [14], in test [15], in [16] and in test [17] was > 100 µM (inactive) throughout.

For `Oc1ccc([I+]c2ccccc2)cc1O`, the GI50 in test [1] is 61.9 µM (inactive); in test [2] it was 27.7 µM; in test [3], 17.4 µM (inactive); in test [4] it was 22.3 µM (inactive); in [5], 46.7 µM (inactive); in test [19] it was 95.1 µM (inactive). Also, the GI50 was 17.8 µM (inactive) in test [6]; 34.4 µM (inactive) in [7]; 35.3 µM (inactive) in test [8]; 53.3 µM (inactive) in test [9]; > 100 µM (inactive) in [11]; 28.8 µM (inactive) in test [12]. The GI50 in [13] is 28.1 µM (inactive); in [14], 59.6 µM (inactive); in test [15], 36.8 µM (inactive); in test [16] it was > 100 µM (inactive); in test [17], 26.2 µM (inactive); in test [18], 2.51 µM (inactive).

`Nc1ncnc2c1ncn2C1OC(CO)C(O)C(O)C1O` (stereo not given): the GI50 was > 100 µM (inactive) in test [1]; > 100 µM in [2]; > 100 µM (inactive) in [3]; > 100 µM (inactive) in test [4]; > 100 µM (inactive) in test [5]; > 100 µM (inactive) in test [19]. Moreover, the GI50 in test [6], in test [7], in test [8], in [9], in [11] and in test [12] was > 100 µM (inactive) in each case. The GI50 in test [13], in test [14], in [15], in test [16], in test [17] and in test [18] was > 100 µM (inactive) in each case.
